This passage reports IC50 results from patent US11524966B1 (Valo Early Discovery, Inc., priority 2017, dated 2022).

For the assay, the target named is T1, USP25 (USP25-His6, Boston Biochem E-546) (Homo sapiens, UniProt Q9UHP3).
T1 construct: His6; purchased Boston Biochem E-546
T1 sequence (Q9UHP3 1-1055): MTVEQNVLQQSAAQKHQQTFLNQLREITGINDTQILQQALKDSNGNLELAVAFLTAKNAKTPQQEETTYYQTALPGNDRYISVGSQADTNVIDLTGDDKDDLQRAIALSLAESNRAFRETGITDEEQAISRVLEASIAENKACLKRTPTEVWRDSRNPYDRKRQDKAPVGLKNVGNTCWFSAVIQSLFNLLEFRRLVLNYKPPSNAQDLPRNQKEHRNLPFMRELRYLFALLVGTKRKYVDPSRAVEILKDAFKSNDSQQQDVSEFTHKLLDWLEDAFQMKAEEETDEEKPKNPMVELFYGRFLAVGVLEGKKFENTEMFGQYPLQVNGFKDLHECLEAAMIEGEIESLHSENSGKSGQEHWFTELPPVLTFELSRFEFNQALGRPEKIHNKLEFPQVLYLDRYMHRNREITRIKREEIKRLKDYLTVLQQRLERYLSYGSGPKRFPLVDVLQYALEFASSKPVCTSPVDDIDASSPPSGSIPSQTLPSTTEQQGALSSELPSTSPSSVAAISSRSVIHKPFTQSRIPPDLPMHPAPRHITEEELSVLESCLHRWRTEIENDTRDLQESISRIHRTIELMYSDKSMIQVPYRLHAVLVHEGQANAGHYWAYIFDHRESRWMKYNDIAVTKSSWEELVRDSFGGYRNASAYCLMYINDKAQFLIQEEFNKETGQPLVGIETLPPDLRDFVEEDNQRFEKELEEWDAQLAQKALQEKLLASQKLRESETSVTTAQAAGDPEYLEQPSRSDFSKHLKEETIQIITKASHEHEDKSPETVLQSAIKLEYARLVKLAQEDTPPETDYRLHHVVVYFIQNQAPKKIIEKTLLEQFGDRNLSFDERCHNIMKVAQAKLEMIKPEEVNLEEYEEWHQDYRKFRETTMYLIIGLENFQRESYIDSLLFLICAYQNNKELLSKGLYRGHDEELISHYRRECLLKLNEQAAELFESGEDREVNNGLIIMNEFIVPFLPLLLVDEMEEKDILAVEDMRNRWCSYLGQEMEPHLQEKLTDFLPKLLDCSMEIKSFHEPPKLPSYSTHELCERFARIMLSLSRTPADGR
The assay is described as follows: Ubiquitin-Rhodamine 110 Assay for USP25 Activity, Example A-2. In kind it is biochemical. The note with it: Ubiquitin-Rhodamine 110 assay, Example A-2; read-out: USP25 A-2 IC50 range. In short, it runs like this:
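Cleavage of ubiquitin-rhodamine 110 (25 nM, well below Km) by His-tagged USP25 at 75 pM is measured fluorimetrically after 45 min at room temperature and acid quench. Inhibitors are preincubated with enzyme for 30 minutes. IC50 values come from four-parameter logistic curve fitting.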

pIC50: −log10 of the molar value.

Take `CO[C@H]1CN(c2cc(F)c3c(c2)CC[C@H](NC(=O)c2sc4nc(C)ccc4c2N)C3)C[C@@H]1N` [Example 136, 3-amino-N-[(2S)-6-[(3S,4S)-3-amino-4-methoxypyrrolidin-1-yl]-8-fluoro-1,2,3,4-tetrahydronaphthalen-2-yl]-6-methylthieno[2,3-b]pyridine-2-carboxamide]: the pIC50 (in general, the IC50 on a negative log10 scale, so that one unit is a factor of ten) is < 5.70.

In the case of `CO[C@H]1CN(c2cc(F)c3c(c2)CC[C@@H](NC(=O)c2sc4nc(C)ccc4c2N)C3)C[C@@H]1N` [Example 137, 3-amino-N-[(2R)-6-[(3S,4S)-3-amino-4-methoxypyrrolidin-1-yl]-8-fluoro-1,2,3,4-tetrahydronaphthalen-2-yl]-6-methylthieno[2,3-b]pyridine-2-carboxamide], the pIC50 is < 5.70.

Consider `CCn1ccc2cc(C(=O)N[C@H]3CCc4cc(N5C[C@H](OC)[C@@H](N)C5)cc(F)c4C3)nnc21` [Example 138, N-[(2S)-6-[(3S,4S)-3-amino-4-methoxypyrrolidin-1-yl]-8-fluoro-1,2,3,4-tetrahydronaphthalen-2-yl]-7-ethyl-7H-pyrrolo[2,3-c]pyridazine-3-carboxamide], for which the negative logarithm of the IC50 (pIC50) was < 5.70.

Turning to `CCn1ccc2cc(C(=O)N[C@@H]3CCc4cc(N5C[C@H](OC)[C@@H](N)C5)cc(F)c4C3)nnc21` [Example 139, N-[(2R)-6-[(3S,4S)-3-amino-4-methoxypyrrolidin-1-yl]-8-fluoro-1,2,3,4-tetrahydronaphthalen-2-yl]-7-ethyl-7H-pyrrolo[2,3-c]pyridazine-3-carboxamide], the negative logarithm of the IC50 (pIC50) is < 5.70.

Regarding `Cc1ccc2c(N)c(C(=O)N[C@H]3COc4cc(N5C[C@H](OC6CC6)[C@@H](N)C5)ccc4C3)sc2n1` [Example 140, 3-amino-N-[(3R)-7-[(3S,4S)-3-amino-4-cyclopropoxypyrrolidin-1-yl]-3,4-dihydro-2H-1-benzopyran-3-yl]-6-methylthieno[2,3-b]pyridine-2-carboxamide], the pIC50 was 5.70 to 6.70.

For `Cc1ccc2c(N)c(C(=O)N[C@H]3COc4cc(N5C[C@H](OC6CCC6)[C@@H](N)C5)ccc4C3)sc2n1` [Example 141, 3-amino-N-[(3R)-7-[(3S,4S)-3-amino-4-cyclobutoxypyrrolidin-1-yl]-3,4-dihydro-2H-1-benzopyran-3-yl]-6-methylthieno[2,3-b]pyridine-2-carboxamide], the pIC50 is 6.70 to 7.30.

In the case of `CCO[C@H]1CN(c2ccc3c(n2)CC[C@H](NC(=O)c2sc4nc(C)ccc4c2N)C3)C[C@@H]1N` [Example 142, 3-amino-N-[(6S)-2-[(3S,4S)-3-amino-4-ethoxypyrrolidin-1-yl]-5,6,7,8-tetrahydroquinolin-6-yl]-6-methylthieno[2,3-b]pyridine-2-carboxamide], the pIC50 is < 5.70.

As to `CO[C@@H]1CN(c2ccc3c(c2)CC[C@H](NC(=O)c2sc4nc(C)ccc4c2N)C3)C[C@@H]1N` [Example 143, 3-amino-N-[(2S)-6-[(3S,4R)-3-amino-4-methoxypyrrolidin-1-yl]-1,2,3,4-tetrahydronaphthalen-2-yl]-6-methylthieno[2,3-b]pyridine-2-carboxamide], the pIC50 was 5.70 to 6.70.

Take `CO[C@@H]1CN(c2cc(F)c3c(c2)OC[C@H](NC(=O)c2sc4nc(C)ccc4c2N)C3)C[C@@H]1N` [Example 145, 3-amino-N-[(3R)-7-[(3S,4R)-3-amino-4-methoxypyrrolidin-1-yl]-5-fluoro-3,4-dihydro-2H-1-benzopyran-3-yl]-6-methylthieno[2,3-b]pyridine-2-carboxamide]: the pIC50 was 5.70 to 6.70.

As to `CO[C@H]1CN(c2cc(F)c3c(c2)OC[C@H](NC(=O)c2sc4nc(C)ccc4c2N)C3)C[C@H]1N` [Example 146], the pIC50 was 5.70 to 6.70.

Turning to `CO[C@H]1CN(c2ccc3c(c2)OC[C@H](NC(=O)c2sc4nc(C)cnc4c2N)C3)C[C@H]1N` [Example 148, 7-amino-N-[(3R)-7-[(3R,4S)-3-amino-4-methoxypyrrolidin-1-yl]-3,4-dihydro-2H-1-benzopyran-3-yl]-3-methylthieno[2,3-b]pyrazine-6-carboxamide], the pIC50 was 5.70 to 6.70.

In the case of `CO[C@@H]1CN(c2ccc3c(c2)OC[C@H](NC(=O)c2sc4nc(C)sc4c2N)C3)C[C@@H]1N` [Example 149, 6-amino-N-[(3R)-7-[(3S,4R)-3-amino-4-methoxypyrrolidin-1-yl]-3,4-dihydro-2H-1-benzopyran-3-yl]-2-methylthieno[2,3-d][1,3]thiazole-5-carboxamide], the pIC50 is 5.70 to 6.70.

Regarding `CO[C@H]1CN(c2ccc3c(c2)OC[C@H](NC(=O)c2sc4nc(C)sc4c2N)C3)C[C@H]1N` [Example 150], the pIC50 was 5.70 to 6.70.

Consider `CCO[C@@H]1CN(c2ccc3c(c2)OC[C@H](NC(=O)c2sc4nc(C)ccc4c2N)C3)C[C@@H]1N` [Example 151, 3-amino-N-[(3R)-7-[(3S,4R)-3-amino-4-ethoxypyrrolidin-1-yl]-3,4-dihydro-2H-1-benzopyran-3-yl]-6-methylthieno[2,3-b]pyridine-2-carboxamide], for which the pIC50 is 5.70 to 6.70.

As for `CCO[C@H]1CN(c2ccc3c(c2)OC[C@H](NC(=O)c2sc4nc(C)ccc4c2N)C3)C[C@H]1N` [Example 152], the pIC50 is 5.70 to 6.70.

As for `Cc1ccc2c(N)c(C(=O)N[C@H]3COc4cc(N5C[C@@H]6NCCO[C@@H]6C5)ccc4C3)sc2n1` [Example 153, N-[(3R)-7-[(4aS,7aR)-octahydropyrrolo[3,4-b]morpholin-6-yl]-3,4-dihydro-2H-1-benzopyran-3-yl]-3-amino-6-methylthieno[2,3-b]pyridine-2-carboxamide], the pIC50 was 5.70 to 6.70.

For the compound `Cc1ccc2c(N)c(C(=O)N[C@H]3COc4cc(N5C[C@@H]6OCCN[C@@H]6C5)ccc4C3)sc2n1` [Example 154, N-[(3R)-7-[(4aR,7aS)-octahydropyrrolo[3,4-b]morpholin-6-yl]-3,4-dihydro-2H-1-benzopyran-3-yl]-3-amino-6-methylthieno[2,3-b]pyridine-2-carboxamide], the pIC50 is 5.70 to 6.70.

Take `COC[C@@H]1CNCCN1c1ccc2c(c1)OC[C@H](NC(=O)c1sc3nc(C)ccc3c1N)C2` [Example 155, 3-amino-N-[(3R)-7-[(2S)-2-(methoxymethyl)piperazin-1-yl]-3,4-dihydro-2H-1-benzopyran-3-yl]-6-methylthieno[2,3-b]pyridine-2-carboxamide]: the pIC50 was 6.70 to 7.30.

For the compound `COC[C@H]1CNCCN1c1ccc2c(c1)OC[C@H](NC(=O)c1sc3nc(C)ccc3c1N)C2` [Example 156, 3-amino-N-[(3R)-7-[(21)-2-(methoxymethyl)piperazin-1-yl]-3,4-dihydro-2H-1-benzopyran-3-yl]-6-methylthieno[2,3-b]pyridine-2-carboxamide], the pIC50 is 5.70 to 6.70.

In the case of `COC[C@H]1CN(c2ccc3c(c2)OC[C@H](NC(=O)c2sc4nc(C)ccc4c2N)C3)CCN1` [Example 157, 3-amino-N-[(3R)-7-[(3R)-3-(methoxymethyl)piperazin-1-yl]-3,4-dihydro-2H-1-benzopyran-3-yl]-6-methylthieno[2,3-b]pyridine-2-carboxamide], the pIC50 is 5.70 to 6.70.

As to `COC[C@@H]1CN(c2ccc3c(c2)OC[C@H](NC(=O)c2sc4nc(C)ccc4c2N)C3)CCN1` [Example 158, 3-amino-N-[(3R)-7-[(3S)-3-(methoxymethyl)piperazin-1-yl]-3,4-dihydro-2H-1-benzopyran-3-yl]-6-methylthieno[2,3-b]pyridine-2-carboxamide], the pIC50 is 5.70 to 6.70.

For `Cc1cc(C)c2c(N)c(C(=O)N[C@H]3COc4cc(N5CCNCC5)c(F)c(F)c4C3)sc2n1` [Example 159, 3-amino-N-[(3R)-5,6-difluoro-7-(piperazin-1-yl)-3,4-dihydro-2H-1-benzopyran-3-yl]-4,6-dimethylthieno[2,3-b]pyridine-2-carboxamide], the negative logarithm of the IC50 (pIC50) was < 5.70.

For `Cc1cc(C)c2c(N)c(C(=O)N[C@@H]3COc4cc(N5CCNCC5)c(F)c(F)c4C3)sc2n1` [Example 160, 3-amino-N-[(3S)-5,6-difluoro-7-(piperazin-1-yl)-3,4-dihydro-2H-1-benzopyran-3-yl]-4,6-dimethylthieno[2,3-b]pyridine-2-carboxamide], the pIC50 was 5.70 to 6.70.

As for `COC[C@@H]1CN(c2ccc3c(c2)OC[C@H](NC(=O)c2sc4nc(C)ccc4c2N)C3)C[C@@H]1N` [Example 161, 3-amino-N-[(3R)-7-[(3R,4R)-3-amino-4(methoxymethyl)pyrrolidin-1-yl]-3,4-dihydro-2H-1-benzopyran-3-yl]-6-methylthieno[2,3-b]pyridine-2-carboxamide], the pIC50 was 5.70 to 6.70.
